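Method: 48-hour compound exposure of cells in 96-well plates, five concentrations, linear interpolation of endpoints. At the GI50, growth is halved.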 The source made the active and inactive calls. Cut-off read from the data, not from the text of the source: active = GI50 up to about 1.1 µM and inactive = higher.
Legend:
Experiment in all cases: growth of human tumour cells (NCI), 48 h
[1] = test system: Malme-3M
[2] = test system: EKVX
[3] = test system: SF-268
[4] = test system: OVCAR-8
[5] = test system: IGROV-1
[6] = test system: ACHN
[7] = test system: SN12C
[8] = test system: OVCAR-4
[9] = test system: RXF 393
[10] = test system: COLO 205
[11] = test system: 786-0
[12] = test system: NCI-H23
[13] = test system: DLD-1
[14] = test system: KM12
[15] = test system: UO-31
[16] = test system: UACC-62
[17] = test system: Hs-578T
[18] = test system: BT-549
[19] = test system: T47D
[20] = test system: PC-3

Measured: GI50

Cc1cccc(NC(=O)CC2C(=O)Nc3ccccc3S2(=O)=O)c1C (stereo unspecified)
inactive: [1] 22.9 µM | [2] > 100 µM | [3] 33.2 µM | [4] 20.2 µM | [5] 26.1 µM | [6] 23.2 µM | [7] 97.5 µM | [8] 16.5 µM | [9] 17.9 µM | [10] > 100 µM | [11] 29 µM | [12] 16.7 µM | [13] 49.7 µM | [14] 30.8 µM | [15] 20.9 µM | [16] 18.6 µM

NCCCNCc1c2ccccc2c(CNCCCN)c2ccccc12
inactive: [1] 11.7 µM | [2] 20.3 µM | [3] 5.12 µM | [4] 14.6 µM | [5] 44.2 µM | [6] 26.7 µM | [7] 3.66 µM | [8] 11.1 µM | [9] 15.2 µM | [10] 7.66 µM | [11] 5.9 µM | [12] 18.6 µM | [13] 34.6 µM | [14] 19.2 µM | [15] 37.8 µM | [16] 36.1 µM

Cn1c(=O)c(/N=N/c2c(=O)n(C)c(=O)n3c2[nH]c2ccccc23)c2[nH]c3ccccc3n2c1=O
inactive: [1] > 100 µM | [2] > 100 µM | [3] 46.2 µM | [4] 57.9 µM | [5] 86.7 µM | [6] 80.9 µM | [8] > 100 µM | [9] > 100 µM | [10] > 100 µM | [11] 41.9 µM | [12] 71.1 µM | [13] > 100 µM | [14] > 100 µM | [15] 87.3 µM | [16] > 100 µM

Cc1ccc(S(=O)(=O)NC(=O)NCCc2ccccc2)cc1
inactive: [1] > 100 µM | [2] > 100 µM | [3] > 100 µM | [4] > 100 µM | [5] > 100 µM | [6] > 100 µM | [7] > 100 µM | [8] > 100 µM | [9] 77.6 µM | [10] > 100 µM | [11] > 100 µM | [12] 76.7 µM | [13] > 100 µM | [14] > 100 µM | [15] 51.8 µM | [16] > 100 µM

O=C(CSc1nnc(-c2ccc(/N=C\c3ccc(Cl)cc3)cc2)o1)Nc1ccc(Cl)cc1Cl
inactive: [1] 21.5 µM | [2] 34.1 µM | [3] 25.2 µM | [4] 28.5 µM | [5] 32.8 µM | [6] 45.4 µM | [7] 24 µM | [8] 30.3 µM | [9] 68.7 µM | [10] 30.7 µM | [11] 19.5 µM | [12] 25.3 µM | [13] 27.3 µM | [14] 28.6 µM | [15] 33 µM | [16] 28.7 µM

Cc1nc(N2N=C(c3ccc(Cl)cc3)CCC2=O)sc1[N+](=O)[O-]
inactive: [1] > 100 µM | [2] 67.6 µM | [3] > 100 µM | [4] > 100 µM | [5] > 100 µM | [6] > 100 µM | [7] > 100 µM | [8] > 100 µM | [9] > 100 µM | [10] > 100 µM | [11] > 100 µM | [12] > 100 µM | [13] > 100 µM | [14] > 100 µM | [15] > 100 µM | [16] > 100 µM

COc1cc(Br)c(/C=N\c2cccc3ccc(OS(=O)(=O)c4ccc([N+](=O)[O-])cc4)cc23)cc1OC
inactive: [1] > 100 µM | [2] > 100 µM | [3] > 100 µM | [4] > 100 µM | [5] > 100 µM | [6] 12.4 µM | [7] > 100 µM | [8] > 100 µM | [9] > 100 µM | [10] > 100 µM | [11] 75.7 µM | [12] 44.1 µM | [13] > 100 µM | [14] 59.4 µM | [15] 7.33 µM | [16] 29.4 µM

COC(=O)C1=C(C[S+]([O-])c2ccc([N+](=O)[O-])cc2[N+](=O)[O-])ON(C)C1c1ccccc1 (stereo unspecified)
inactive: [1] > 84.5 µM | [2] > 64.6 µM | [3] 33.5 µM | [4] 63.7 µM | [5] > 84.5 µM | [6] 67.6 µM | [7] 29.4 µM | [8] 48.4 µM | [9] > 42.2 µM | [10] 24.2 µM | [11] 67.1 µM | [12] 25.3 µM | [13] 33.8 µM | [14] 37.2 µM | [15] 39.4 µM | [16] 24.2 µM

N#Cc1ccccc1/C=N/O
inactive: [1] > 100 µM | [2] > 100 µM | [3] > 100 µM | [4] > 100 µM | [5] > 100 µM | [6] > 60.3 µM | [7] > 100 µM | [8] > 100 µM | [9] > 100 µM | [10] > 49.7 µM | [11] > 76.7 µM | [12] > 100 µM | [13] > 93.8 µM | [14] > 100 µM | [15] > 100 µM | [16] > 100 µM

O=C(Nc1cccc(C(F)(F)F)c1)C(=O)C1NC(=S)NC1=O (stereo unspecified)
inactive: [1] > 100 µM | [2] > 100 µM | [3] > 100 µM | [4] > 100 µM | [5] > 100 µM | [6] > 100 µM | [7] > 100 µM | [8] > 100 µM | [9] > 100 µM | [10] 39 µM | [11] > 100 µM | [12] > 100 µM | [13] > 100 µM | [14] > 100 µM | [15] > 100 µM | [16] > 100 µM

COc1cc2c(cc1OC)C(Cc1cc(Br)c(OC)c(OC)c1)=[N+](C)CC2
inactive: [1] > 100 µM | [2] > 100 µM | [3] > 100 µM | [4] 27 µM | [5] > 100 µM | [6] 90.4 µM | [7] 87.3 µM | [8] 19.2 µM | [9] 69.7 µM | [10] 40.6 µM | [11] > 100 µM | [12] 14.6 µM | [13] 80 µM | [14] > 100 µM | [15] > 100 µM | [16] > 100 µM

Brc1ccccc1C1SCc2nc3ccccc3n21 (stereo unspecified)
inactive: [1] 18.8 µM | [2] 17.3 µM | [3] 20 µM | [4] 23.6 µM | [5] 18.6 µM | [6] 16.4 µM | [7] 12.8 µM | [8] 23.8 µM | [9] 9.33 µM | [10] 16.7 µM | [11] 14 µM | [12] 11.7 µM | [13] 12.7 µM | [14] 15.9 µM | [15] 10.4 µM | [16] > 10 µM

CCCCCCCCC(=O)N(C)C1C2CN3CCC(O2)C13 (stereo unspecified)
inactive: [1] > 100 µM | [2] > 100 µM | [3] > 100 µM | [5] > 100 µM | [6] > 100 µM | [7] > 100 µM | [8] > 100 µM | [9] > 100 µM | [10] > 100 µM | [11] > 100 µM | [12] > 100 µM | [13] > 100 µM | [14] > 100 µM | [15] > 100 µM | [16] > 100 µM

C#CCNC(=O)N(CC#C)N=O
inactive: [1] > 100 µM | [2] > 100 µM | [3] > 100 µM | [4] > 100 µM | [5] > 100 µM | [6] > 100 µM | [7] > 100 µM | [8] > 100 µM | [9] > 100 µM | [11] > 100 µM | [12] > 100 µM | [13] > 100 µM | [14] > 100 µM | [15] > 100 µM | [16] > 100 µM

C[C@]12C=CC(=O)C=C1[C@@H](F)C[C@H]1[C@@H]3CC[C@](O)(C(=O)CO)[C@@]3(C)C[C@H](O)[C@@]12F
inactive: [17] > 100 µM | [1] > 100 µM | [2] > 64.4 µM | [3] > 100 µM | [4] > 100 µM | [5] > 100 µM | [6] > 100 µM | [18] > 100 µM | [7] > 100 µM | [8] > 100 µM | [9] > 85.5 µM | [19] > 100 µM | [10] > 100 µM | [11] > 100 µM | [12] > 100 µM | [13] > 100 µM | [14] > 100 µM | [20] > 100 µM | [15] > 100 µM | [16] > 100 µM
